Test results taken from PMC5642477, “Phosphodiesterase 10A is overexpressed in lung tumor cells and inhibitors selectively suppress growth by blocking β-catenin and MAPK signaling” (Oncotarget, 2017).
Read-outs that look alike come from different tables or passages of the source. Blank lines part the entries; values can stand above or below the molecule they belong to.

Columns and labels:
H460 cells = experiment: Growth assay (Cell Titer Glo); format: cell-based; conditions: Homo sapiens, NCI-H460; H460, 72 hours, 5% serum; read-out: Growth inhibition IC50
Experimental: (§1) Cells were plated in half area 96-well microtiter plates (Corning) at a density of 3, 000 cells per well. For drug treatment, cells were treated with compound or DMSO as vehicle (final concentration at 0.2%). For siRNA assays, cells were transfected with siRNAs under the same condition as described above. The effect of treatment on cell growth was measured using the Cell Titer Glo (CTG) assay (Promega) as specified by the measurement of viable cells based on ATP content after 72 hours standard culture. All growth assay involving NSCLCs and NHAECs were performed in the presence of 5% serum.
(§2) Drug effects on cell growth and IC50 values were determined as described previously. All experiments were repeated a minimum of three times to determine the reproducibility of the results. All error bars represent standard error of the mean (SEM). Statistical analysis was performed using Student’s t test or other as indicated. A P value of <0.05 was considered statistically significant.

A549 cells = experiment: Growth assay (Cell Titer Glo); format: cell-based; conditions: Homo sapiens; A549, 72 hours, 5% serum; read-out: Growth inhibition IC50
Experimental: as §1, §2

H1975 cells = experiment: Growth assay (Cell Titer Glo); format: cell-based; conditions: Homo sapiens, NCI-H1975; H1975, 72 hours, 5% serum; read-out: Growth inhibition IC50
Experimental: as §1, §2

[1] = system: normal human airway epithelial cells (NHAECs); experiment: Growth assay (Cell Titer Glo); format: cell-based
Experimental: as §1, §2

[2] = system: MAPK signaling in H1299 cells; experiment: Western blotting, RAF/MAPK signaling; format: cell-based, human
Experimental: (§3) Whole cell extraction was performed according to a previously described method using cell lysing buffer (Cell Signaling) supplemented with 10 mmol/L NaF for protein phosphorylation studies. Cell lysates were separated by 4-12% gradient, 7% or 10% pre-casting PAGE (Novex/Invitrogen) followed by electrophoretic transfer to a nitrocellulose membrane. Western blotting procedures were performed using Chemiluminescence Reagent (Pierce) and visualized using Chemi Doc Imaging System (BioRad).

[3] = system: intracellular cGMP levels in HEK293 cells; experiment: cGMP biosensor assay (luciferase); format: cell-based, human
Experimental: (§4) Stable cell lines with an expression of luciferase-based cGMP biosensor were established from H1299 NSCLC cells and HEK293 cells using a genetically encoded GAF-Luc construct (Promega), containing a cGMP-specific binding domain from human PDE5A GAF-A domain fused to modified firefly luciferase (35). Cells were pre-incubated at room temperature in CO2 independent media supplemented with 10% FBS and 5 mmol/L luciferin. For the measurement of intracellular cGMP levels, sodium nitroprusside (SNP) or C-type natriuretic peptide (CNP) in combination with PDE inhibitors were added to initiate the experiment and the increased luminescence values in live cells were detected constantly over a period time of 2 hours.

[4] = system: intracellular cGMP levels in H1299 cells; experiment: cGMP biosensor assay (luciferase); format: cell-based, human; conditions: for EC50: Homo sapiens, NCI-H1299, H1299 biosensor cells, read-out: EC50 to induce cGMP elevation
Experimental: as §4

[5] = system: HOP62 PDE10 knockdown cells (shPDE10); experiment: Colony formation assay; format: cell-based, human
Experimental: (§5) The transient knockdown of PDE10 in NSCLC cells by PDE10-specific siRNA and scramble siRNA control was performed using RNAiMAX reagent (Invitrogen) as previously described. Effects of siRNA on NSCLC cell growth and PDE10 expression levels were measured after 72 hours of treatment. For a stable knockdown of PDE10, GIPZ lentiviral short hairpin RNA (shRNA) vectors targeting human PDE10, nonsilencing GPIZ lentiviral control vector, and transduction kit were purchased from Open Biosystems. Lentiviral particles of shRNA were produced in HEK293T cells (ATCC) according to the manufacturer’s instructions. HOP62 NSCLC cells were transfected by the lentivirus particles followed by puromycin (5 μg/mL) selection. Stable expression cell lines with shRNA of PDE10 (shPDE10) or lentiviral vector control (shCTL) were obtained by limited dilution for single cell clone and confirmed by Western blotting.
(§6) For colony formation assays, 200 viable cells were plated in 6-well tissue culture plates and were cultured in RPMI medium supplemented with 5% serum. DMSO (0.2%) as the vehicle and different concentrations of PQ10 were added to the cell culture medium for 14 days of treatment. Colonies were counted after staining with crystal violet as previously described.

[6] = system: HOP62 cells (shCTL vector control); experiment: Colony formation assay; format: cell-based, human
Experimental: as §5, §6

[7] = system: HOP62 PDE10 knockdown cells (shPDE10); experiment: Growth assay (Cell Titer Glo); format: cell-based, human; conditions: shPDE10, PQ10 2 µmol/L
Experimental: as §5
as §1, with “All growth assay involving NSCLCs and NHAECs were performed in the presence of 5% serum.” left out

PDE5A = PDE5A (Homo sapiens, UniProt O76074); experiment: IMAP fluorescence polarization PDE assay, recombinant PDE isozymes; format: biochemical; conditions: substrate cGMP; read-out: IC50 of PQ10 cGMP
Experimental: (§7) The enzymatic activity of recombinant PDE or PDE activities in cell lysates were measured using the IMAP fluorescence polarization (FP) PDE assay (Molecular Devices) as previously described. PDE10 inhibitors and DMSO as the vehicle were added to assay buffer 10 minutes before the incubation with the enzyme reaction. Fluorescence polarization values were measured using Synergy H4 Hybrid Reader (BioTek).

PDE2A = PDE2A (Homo sapiens, UniProt O00408); experiment: as above; format: biochemical
Experimental: as §7

PDE3A = PDE3A (Homo sapiens, UniProt Q14432); experiment: as above; format: biochemical
Experimental: as §7

PDE11A = PDE11A (Homo sapiens, UniProt Q9HCR9); experiment: as above; format: biochemical
Experimental: as §7

PDE1A = PDE1A (Homo sapiens, UniProt P54750); experiment: as above; format: biochemical
Experimental: as §7

PDE4B = PDE4B (Homo sapiens, UniProt Q07343); experiment: as above; format: biochemical; conditions: substrate cAMP; read-out: IC50 of PQ10 cAMP
Experimental: as §7

PDE10A = PDE10A (Homo sapiens, UniProt Q9Y233); experiment: as above; format: biochemical
Experimental: as §7

β-catenin in H1299 cells = experiment: Western blotting, β-catenin phosphorylation; format: cell-based, human; conditions: H1299 cells
Experimental: as §3

PDE6A/B = experiment: IMAP fluorescence polarization PDE assay, recombinant PDE isozymes; format: biochemical; set-up: key: Inactive: >100 µmol/L shows no inhibition; conditions: substrate cGMP
Experimental: as §7

PDE9A = PDE9A (Homo sapiens, UniProt O76083); experiment: as above; format: biochemical; set-up: key: Inactive: >100 µmol/L shows no inhibition; conditions: substrate cGMP
Experimental: as §7

PDE7A = PDE7A (Homo sapiens, UniProt Q13946); experiment: as above; format: biochemical; set-up: key: Inactive: >100 µmol/L shows no inhibition; conditions: substrate cAMP
Experimental: as §7

PDE8A = PDE8A (Homo sapiens, UniProt O60658); experiment: as above; format: biochemical; set-up: key: Inactive: >100 µmol/L shows no inhibition; conditions: substrate cAMP
Experimental: as §7

[8] = system: cleaved PARP and caspase 3 in H1299 cells; experiment: Western blotting, cleaved PARP and caspase 3 (apoptosis); format: cell-based, human; conditions: H1299 cells
Experimental: as §3

[9] = system: PKG activation in H1299 cells; experiment: Western blotting, PKG activation (pSer239-VASP); format: cell-based, human
Experimental: as §3

HOP62 cells = experiment: Growth assay (Cell Titer Glo); format: cell-based, human; conditions: for IC50: Homo sapiens, HOP-62, HOP62, 72 hours, 5% serum, read-out: Growth inhibition IC50
Experimental: as §1, §2

H1299 cells = experiment: Growth assay (Cell Titer Glo); format: cell-based, human; conditions: Homo sapiens, NCI-H1299; H1299, 72 hours, 5% serum; read-out: Growth inhibition IC50
Experimental: as §1, §2

human lung tumor cells = experiment: Growth assay (Cell Titer Glo), lung tumor cell panel; format: cell-based
Experimental: as §1, §2

H322M cells = experiment: Growth assay (Cell Titer Glo); format: cell-based; conditions: Homo sapiens, NCI-H322M, 72 hours, read-out: Growth inhibition IC50
Experimental: as §1, §2

EKVX cells = experiment: Growth assay (Cell Titer Glo); format: cell-based; conditions: Homo sapiens, 72 hours, read-out: Growth inhibition IC50
Experimental: as §1, §2

HOP-92 cells = experiment: Growth assay (Cell Titer Glo); format: cell-based; conditions: Homo sapiens; HOP-92, 72 hours; read-out: Growth inhibition IC50
Experimental: as §1, §2

H23 cells = experiment: Growth assay (Cell Titer Glo); format: cell-based; conditions: Homo sapiens, NCI-H23; H23, 72 hours; read-out: Growth inhibition IC50
Experimental: as §1, §2

H226 cells = experiment: Growth assay (Cell Titer Glo); format: cell-based; conditions: Homo sapiens, NCI-H226; H226, 72 hours; read-out: Growth inhibition IC50
Experimental: as §1, §2

H522 cells = experiment: Growth assay (Cell Titer Glo); format: cell-based; conditions: Homo sapiens, NCI-H522; H522, 72 hours; read-out: Growth inhibition IC50
Experimental: as §1, §2

[10] = substrate cAMP, read-out: IC50 of PQ10 cAMP
[11] = substrate cGMP, read-out: IC50 of PQ10 cGMP

Chain of PDE11A (Q9HCR9 whole entry): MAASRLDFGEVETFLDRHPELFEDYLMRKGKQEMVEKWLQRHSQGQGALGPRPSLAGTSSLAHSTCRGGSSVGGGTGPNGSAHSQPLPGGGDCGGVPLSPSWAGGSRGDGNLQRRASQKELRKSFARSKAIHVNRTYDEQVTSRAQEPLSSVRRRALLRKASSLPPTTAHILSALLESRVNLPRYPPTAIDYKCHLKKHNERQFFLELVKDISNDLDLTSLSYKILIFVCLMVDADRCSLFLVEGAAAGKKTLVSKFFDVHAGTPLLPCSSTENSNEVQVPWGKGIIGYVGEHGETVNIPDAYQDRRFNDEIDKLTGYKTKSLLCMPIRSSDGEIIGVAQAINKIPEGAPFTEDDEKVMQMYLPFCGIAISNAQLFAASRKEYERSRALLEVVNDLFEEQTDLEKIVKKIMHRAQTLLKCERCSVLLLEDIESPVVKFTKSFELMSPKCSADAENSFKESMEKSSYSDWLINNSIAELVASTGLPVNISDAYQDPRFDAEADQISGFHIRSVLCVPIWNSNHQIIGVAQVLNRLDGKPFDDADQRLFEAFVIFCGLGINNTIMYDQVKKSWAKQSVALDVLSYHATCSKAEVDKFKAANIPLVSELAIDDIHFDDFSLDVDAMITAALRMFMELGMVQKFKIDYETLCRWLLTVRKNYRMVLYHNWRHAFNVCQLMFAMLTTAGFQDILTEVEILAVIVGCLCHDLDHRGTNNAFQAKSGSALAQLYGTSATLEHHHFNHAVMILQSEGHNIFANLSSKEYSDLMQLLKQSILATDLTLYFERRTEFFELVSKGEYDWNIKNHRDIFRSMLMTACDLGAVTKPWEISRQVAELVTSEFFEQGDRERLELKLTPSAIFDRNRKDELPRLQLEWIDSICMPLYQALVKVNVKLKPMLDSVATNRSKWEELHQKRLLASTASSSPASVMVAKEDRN
Chain of PDE1A (P54750 whole entry): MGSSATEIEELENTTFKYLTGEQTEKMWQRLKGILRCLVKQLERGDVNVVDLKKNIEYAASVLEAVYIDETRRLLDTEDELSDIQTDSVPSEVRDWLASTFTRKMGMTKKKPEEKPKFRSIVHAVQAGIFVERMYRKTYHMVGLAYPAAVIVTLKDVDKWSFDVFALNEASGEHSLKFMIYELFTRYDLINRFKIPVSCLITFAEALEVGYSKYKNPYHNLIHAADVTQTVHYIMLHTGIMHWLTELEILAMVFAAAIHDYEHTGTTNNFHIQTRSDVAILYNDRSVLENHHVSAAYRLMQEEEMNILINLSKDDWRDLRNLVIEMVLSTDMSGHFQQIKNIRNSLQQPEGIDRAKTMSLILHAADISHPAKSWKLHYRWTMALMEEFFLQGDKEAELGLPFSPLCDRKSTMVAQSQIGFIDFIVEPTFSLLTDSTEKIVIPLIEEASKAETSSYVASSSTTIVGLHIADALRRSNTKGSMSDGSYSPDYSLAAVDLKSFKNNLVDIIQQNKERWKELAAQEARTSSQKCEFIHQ
Chain of PDE2A (O00408 whole entry): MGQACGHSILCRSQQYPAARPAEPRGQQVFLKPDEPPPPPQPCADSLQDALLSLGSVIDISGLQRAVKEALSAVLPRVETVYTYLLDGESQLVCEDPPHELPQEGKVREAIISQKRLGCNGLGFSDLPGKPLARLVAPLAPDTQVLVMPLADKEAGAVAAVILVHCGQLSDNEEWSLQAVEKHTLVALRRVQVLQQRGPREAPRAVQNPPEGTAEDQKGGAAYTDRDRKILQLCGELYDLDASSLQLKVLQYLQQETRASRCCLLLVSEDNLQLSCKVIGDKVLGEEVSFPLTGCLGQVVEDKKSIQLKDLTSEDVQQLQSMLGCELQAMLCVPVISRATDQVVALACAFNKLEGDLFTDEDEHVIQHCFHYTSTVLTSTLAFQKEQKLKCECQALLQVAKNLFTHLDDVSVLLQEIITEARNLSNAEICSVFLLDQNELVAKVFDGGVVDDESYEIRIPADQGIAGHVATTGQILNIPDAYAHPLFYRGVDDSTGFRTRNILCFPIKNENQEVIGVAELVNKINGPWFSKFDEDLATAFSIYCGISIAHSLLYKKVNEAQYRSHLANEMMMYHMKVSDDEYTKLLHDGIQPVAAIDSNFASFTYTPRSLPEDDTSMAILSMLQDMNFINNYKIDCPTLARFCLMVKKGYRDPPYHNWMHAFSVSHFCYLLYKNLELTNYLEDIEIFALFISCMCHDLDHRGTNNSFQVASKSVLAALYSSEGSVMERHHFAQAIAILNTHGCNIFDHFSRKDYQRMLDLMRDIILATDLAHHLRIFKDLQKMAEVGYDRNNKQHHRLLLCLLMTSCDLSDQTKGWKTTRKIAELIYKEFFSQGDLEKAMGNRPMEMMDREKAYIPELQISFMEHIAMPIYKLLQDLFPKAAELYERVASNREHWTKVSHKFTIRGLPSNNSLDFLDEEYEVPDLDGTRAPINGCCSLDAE
Chain of PDE10A (Q9Y233 718-1035 limits assumed): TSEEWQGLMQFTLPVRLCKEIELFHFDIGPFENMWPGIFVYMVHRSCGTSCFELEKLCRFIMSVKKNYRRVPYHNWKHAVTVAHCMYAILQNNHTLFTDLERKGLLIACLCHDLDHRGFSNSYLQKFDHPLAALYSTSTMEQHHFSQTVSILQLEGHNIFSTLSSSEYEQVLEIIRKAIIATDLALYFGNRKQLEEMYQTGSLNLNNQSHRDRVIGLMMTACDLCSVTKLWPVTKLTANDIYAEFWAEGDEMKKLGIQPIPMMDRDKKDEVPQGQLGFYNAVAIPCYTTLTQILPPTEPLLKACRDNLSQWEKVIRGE
Chain of PDE3A (Q14432 whole entry): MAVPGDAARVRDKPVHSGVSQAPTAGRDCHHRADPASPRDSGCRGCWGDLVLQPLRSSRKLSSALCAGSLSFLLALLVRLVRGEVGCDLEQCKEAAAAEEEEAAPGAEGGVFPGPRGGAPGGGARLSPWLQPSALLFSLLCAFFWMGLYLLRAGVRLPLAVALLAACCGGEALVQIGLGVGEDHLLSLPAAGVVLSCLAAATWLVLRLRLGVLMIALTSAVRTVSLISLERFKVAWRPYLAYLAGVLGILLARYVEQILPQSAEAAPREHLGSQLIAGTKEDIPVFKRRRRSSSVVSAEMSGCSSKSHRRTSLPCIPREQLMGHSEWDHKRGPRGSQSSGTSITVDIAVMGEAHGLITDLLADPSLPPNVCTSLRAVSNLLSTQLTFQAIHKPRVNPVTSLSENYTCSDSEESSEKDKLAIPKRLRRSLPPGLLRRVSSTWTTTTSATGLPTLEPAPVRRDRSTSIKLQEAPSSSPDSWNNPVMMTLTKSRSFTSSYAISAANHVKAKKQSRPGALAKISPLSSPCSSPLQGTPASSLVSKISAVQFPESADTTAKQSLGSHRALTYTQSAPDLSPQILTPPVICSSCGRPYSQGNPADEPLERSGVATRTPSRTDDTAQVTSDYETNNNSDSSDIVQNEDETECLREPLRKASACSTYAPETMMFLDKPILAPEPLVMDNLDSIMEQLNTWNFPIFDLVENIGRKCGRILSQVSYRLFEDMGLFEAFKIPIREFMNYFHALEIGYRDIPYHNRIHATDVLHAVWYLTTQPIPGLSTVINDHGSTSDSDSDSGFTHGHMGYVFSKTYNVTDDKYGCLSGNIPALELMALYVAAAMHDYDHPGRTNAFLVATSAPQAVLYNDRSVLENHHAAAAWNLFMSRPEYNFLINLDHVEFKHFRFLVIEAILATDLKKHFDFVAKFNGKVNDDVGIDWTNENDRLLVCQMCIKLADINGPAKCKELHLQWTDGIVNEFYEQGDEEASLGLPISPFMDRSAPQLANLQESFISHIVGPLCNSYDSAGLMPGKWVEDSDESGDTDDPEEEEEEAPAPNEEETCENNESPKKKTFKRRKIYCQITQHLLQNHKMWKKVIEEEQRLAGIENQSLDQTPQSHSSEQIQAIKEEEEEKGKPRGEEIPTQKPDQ
Chain of PDE9A (O76083 whole entry): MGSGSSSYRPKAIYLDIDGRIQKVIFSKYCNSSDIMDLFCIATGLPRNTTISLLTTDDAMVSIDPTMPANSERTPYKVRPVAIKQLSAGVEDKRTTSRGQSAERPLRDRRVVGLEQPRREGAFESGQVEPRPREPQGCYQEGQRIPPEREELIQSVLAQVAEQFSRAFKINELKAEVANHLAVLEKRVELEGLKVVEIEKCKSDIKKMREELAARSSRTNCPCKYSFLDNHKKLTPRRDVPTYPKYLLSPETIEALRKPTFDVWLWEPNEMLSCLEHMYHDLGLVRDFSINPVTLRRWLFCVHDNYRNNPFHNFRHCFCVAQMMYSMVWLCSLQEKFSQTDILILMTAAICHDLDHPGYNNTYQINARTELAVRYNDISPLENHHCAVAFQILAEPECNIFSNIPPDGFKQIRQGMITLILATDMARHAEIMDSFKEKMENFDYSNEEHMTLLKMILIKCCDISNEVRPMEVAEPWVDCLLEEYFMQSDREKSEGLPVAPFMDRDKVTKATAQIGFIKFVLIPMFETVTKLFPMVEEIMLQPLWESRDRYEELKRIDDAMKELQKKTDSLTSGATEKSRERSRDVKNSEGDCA
Chain of PDE7A (Q13946 whole entry): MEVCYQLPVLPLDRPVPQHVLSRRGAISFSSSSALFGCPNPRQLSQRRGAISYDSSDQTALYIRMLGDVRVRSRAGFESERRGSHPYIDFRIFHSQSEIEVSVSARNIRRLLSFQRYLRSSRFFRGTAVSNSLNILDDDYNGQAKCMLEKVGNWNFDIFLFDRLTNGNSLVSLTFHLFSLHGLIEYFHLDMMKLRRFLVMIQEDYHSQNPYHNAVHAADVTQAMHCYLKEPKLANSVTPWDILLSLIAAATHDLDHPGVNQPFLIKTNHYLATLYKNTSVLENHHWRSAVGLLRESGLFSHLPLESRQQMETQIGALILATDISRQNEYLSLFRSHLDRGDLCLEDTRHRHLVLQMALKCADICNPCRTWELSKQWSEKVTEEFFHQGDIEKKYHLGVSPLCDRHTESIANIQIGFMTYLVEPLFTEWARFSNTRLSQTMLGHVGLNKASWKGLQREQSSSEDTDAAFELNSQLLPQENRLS

SMILES: COc1cc2ncnc(N3CC[C@@H](Oc4cnc5ccccc5n4)C3)c2cc1OC [PQ10]
- IC50 (H460 cells): 0.32 µM
- IC50 (A549 cells): 0.54 µM
- IC50 (H1975 cells): 1.27 µM
- IC50 ([1]; Homo sapiens, Epithelial cell, NHAEC, 72 hours, 5% serum, read-out: Growth inhibition IC50): 17.3 µM
- fold less sensitive to PQ10 treatment (NHAECs vs lung tumor cells) ([1]; growth assays under identical conditions): ≤ 50 fold
- MAPK signaling, ERK1/2 (p42/44) phosphorylation at T202/Y204 [2]: concentration- and time-dependent inhibition
- phosphorylation of c-RAF at serine 338 and serine 259 [2]: did not affect
- EC50 ([3]; Homo sapiens, HEK293 biosensor cells, SNP (100 µmol/L) stimulation, read-out: EC50 to induce cGMP elevation): 5.67 µM
- EC50 fold higher in HEK293 than in H1299 biosensor cells ([3]; SNP (100 µmol/L)): about 3.3 fold
- time to increase in cGMP levels ([4]; H1299 biosensor cells, sustained to 2 hours): ≤ 1 h
- EC50 ([4]; CNP (100 nmol/L) stimulation): 1.31 µM
- EC50 ([4]; SNP (100 µmol/L) stimulation): 1.72 µM
- reduction of colony formation ([5]; 0.1 µmol/L, PDE10 knockdown HOP62 cells): 12.3%
- IC50 ([5]; Homo sapiens, HOP-62, 336 h, HOP62 shPDE10, 14 days of treatment): 0.172 µM
- reduction of colony formation ([6]; 0.1 µmol/L, HOP62 vector control cells): 54.4%
- IC50 ([6]; Homo sapiens, HOP-62, 336 h, HOP62 shCTL, 14 days of treatment): 0.098 µM
- sensitivity of PDE10 knockdown HOP62 cells in growth assay [7]: appreciably less sensitive
- IC50 (PDE5A): 1.8 µM
- IC50 (PDE2A; [10]): 7 µM
- IC50 (PDE2A; [11]): 3.7 µM
- IC50 (PDE3A; [10]): 0.47 µM
- IC50 (PDE3A; [11]): 0.32 µM
- IC50 (PDE11A; [10]): 30.1 µM
- IC50 (PDE11A; [11]): 13.2 µM
- IC50 (PDE1A; [10]): 29.2 µM
- IC50 (PDE1A; [11]): 8.8 µM
- IC50 (PDE4B): 17.8 µM
- IC50 (PDE10A; [10]): 0.013 µM
- IC50 (PDE10A; [11]): 0.005 µM
- phosphorylation level of β-catenin at pSer675 (β-catenin in H1299 cells): no change
- phosphorylation of β-catenin at pSer552 (β-catenin in H1299 cells; concentration-dependent, 0.5-1 hour): increased the phosphorylation
- IC50 of PQ10 cGMP (PDE6A/B): Inactive
- IC50 of PQ10 cGMP (PDE9A): Inactive
- IC50 of PQ10 cAMP (PDE7A): Inactive
- IC50 of PQ10 cAMP (PDE8A): Inactive
- lowest concentration increasing cleaved PARP and caspase 3 ([8]; 24 hours of treatment): 0.1 µmol/L
- concentration of maximum effect on cleaved PARP and caspase 3 ([8]; 48 hours of treatment): 5 µmol/L
- time to increase in pSer239-VASP levels [9]: ≤ 30 minutes
- IC50 (HOP62 cells): 1.01 µM
- growth of vector control HOP62 cells (HOP62 cells; shCTL, PQ10 2 µmol/L): effectively inhibited
- IC50 (H1299 cells): 1.69 µM
- maximum reduction of viable cell number (human lung tumor cells; 3 days of treatment): greater than 75%
- IC50 (human lung tumor cells; Homo sapiens, 72 h, read-out: Growth inhibition IC50 values, range over human lung tumor cells): 0.32 to 1.69 µM

SMILES: CC(C)Cn1c(=O)n(C)c(=O)c2[nH]cnc21 [IBMX]
- effect on luminescence values in biosensor assay ([4]; H1299, CNP 100 nmol/L, sildenafil 1 µmol/L, IBMX 100 µmol/L): increased luminescence levels

SMILES: COc1ccc(Cc2nccc3cc(OC)c(OC)cc23)cc1OC [Papaverine]
- IC50 (H460 cells): 16.3 µM
- IC50 (A549 cells): 17.2 µM

- IC50 (H322M cells): 20 µM
- IC50 (H460 cells): 15.2 µM
- IC50 (A549 cells): 15.8 µM
- IC50 (H226 cells): 21.1 µM
- IC50 (H522 cells): 25.8 µM
SMILES: Cn1cc(-c2ccncc2)c(-c2ccc(OCc3ccc4ccccc4n3)cc2)n1 [Pf-2545920]
- IC50 (EKVX cells): 18.6 µM
- IC50 (HOP-92 cells): 21.4 µM
- IC50 (H23 cells): 18.1 µM
- IC50 (HOP62 cells): 22.9 µM
